# Source: patent publication US8642801B2 (BHI Limited Partnership, priority 2003, dated 2014)
# Biological target: T1, Aβ40 and Aβ42 peptides in plasma and brain of TgCRND8 mice (Homo sapiens, UniProt P05067)
# T1 construct: ELISA using Human Aβ40 and Aβ42 Fluorometric ELISA kits from Biosource; from tissue; host or cells: plasma and brain homogenate of TgCRND8 transgenic mice (hAPP transgene)
# Test: Long term treatment in adult transgenic CRND8 mice overexpressing βAPP: Aβ levels in plasma and brain by ELISA
# Assay type: in vivo, Mouse
# Settings: BX subcutaneous, BW and BZ oral, vs vehicle or methylcellulose control
# Text: Transgenic mice, TgCRND8, as those used in the short term treatment, overexpress a human APP gene with the Swedish and Indiana mutations leading to the production of high levels of the amyloid peptides and to the development of an early-onset, aggressive development of brain amyloidosis. The high levels of Aβ peptides and the relative overabundance of Aβ42 compared to Aβ40 are believed to be associated with the severe and early degenerative pathology observed. The pattern of amyloid deposition, presence of dystrophic neuritis, and cognitive deficit has been well documented in this transgenic mouse line. The levels of Aβ peptides in the brain of these mice increase dramatically as the animals age. While the total amyloid peptide levels increase from ˜1.6×10^5 pg/g of brain to ˜3.8×10^6 between 9 and 17 weeks of age.
# The long-term therapeutic effects of compounds of the present invention on cerebral amyloid deposition and β-amyloid (Aβ) levels in the plasma and in the brains of transgenic mice, TgCRND8, expressing the human amyloid precursor protein (hAPP) was studied. These compounds were administered over an 8 or 16 week period at the end of which the levels of Aβ peptides in the plasma and brain of TgCRND8 animals were determined. The goal of this study was to evaluate the efficacy of the compounds at modulating the progression of the amyloidogenic process in the brain and in the plasma of a transgenic mouse model of Alzheimer's disease (AD)
# The mice used in the study consisted of animals bearing one copy of the hAPP gene (+/−) from the 2nd and 3rd generation progenies (N2 and N3) derived from backcrosses from TgCRND8.FVB(N2)AJ(N3) with B6AF1/J hybrid animals. N1=TgCRND8.FVB(N2)AJ(N3)×B6AF1/J N2=TgCRND8.FVB(N2)AJ(N3).B6AF1/J(N1)×B6AF1/J N3=TgCRND8.FVB(N2)AJ(N3).B6AF1/J(N2)×B6AF1/a
# The following abbreviations are used to designate these animals in the present study: TgCRND8.B6AF1/J(N2); TgCRND8.B6AF1/J(N3). Male and female transgenic mice were given daily subcutaneous (compound BX) or oral (compounds BW and BZ) administrations of the appropriate compounds for 8 or 16 weeks.
# Baseline animals consisted of 9±1 week old naive TgCRND8.B6AF1/J animals from the 2nd and 3rd generations. These mice were used to determine the extent of cerebral amyloid deposits and Aβ levels in the plasma and brain of naive transgenic animals at the initiation of treatment.
# Starting at 9 weeks of age (±1 week) animals received daily administration of their respective treatment for a period of 8 or 16 weeks, at a dose of 30 or 100 mg/kg at 10 ml/kg. The route of administration was subcutaneous for water-soluble compounds (Compound BX) and oral for compounds solubilized in methylcellulose 1% (MC 1%) (Compounds BW and BZ). At the end of the treatment periods, plasma and perfused brains were collected for quantification of Aβ levels.
# Animal health was monitored, samples were collected and Aβ levels were measured as described above in the short term treatment study. Compounds were scored based on their ability to modulate levels of Aβ peptides in the plasma and the cerebral soluble/insoluble levels in the brain. Levels of Aβ observed in the plasma and brain of treated animals were compared to that of vehicle-treated (water) or methylcellulose-treated control groups and ranked according to the strength of the pharmacological effect. Increases in the levels of Aβ peptides are indicated using “+” symbols, while decreases in the levels of Aβ peptides are indicated using “−” symbols. The strongest effects are recorded as “+++” or “−−−” while the weakest are shown as “+” or “−”.
# Specifically, increases in the levels of Aβ (relative to vehicle treated control) of 5 to 14% are scored as “+”; increases of 15 to 29% are scored as “++”; and increases of 30% or higher are scored as “+++”. Decreases in the levels of Aβ of 5 to 14% are scored as “−”; decreases of 15 to 29% are scored as “−−”; and decreases of 30% or more are scored as “−−−”. […]
SMILES,"Brain Abeta40 insoluble (30 mg/kg daily, 8 wks)","Brain Abeta40 soluble (30 mg/kg daily, 8 wks)","Brain Abeta42 insoluble (30 mg/kg daily, 8 wks)","Brain Abeta42 soluble (30 mg/kg daily, 8 wks)","Plasma Abeta40 (30 mg/kg daily, 8 wks)","Plasma Abeta42 (30 mg/kg daily, 8 wks)","Brain Abeta40 insoluble (30 mg/kg daily, 16 wks)","Brain Abeta40 soluble (30 mg/kg daily, 16 wks)","Brain Abeta42 insoluble (30 mg/kg daily, 16 wks)","Brain Abeta42 soluble (30 mg/kg daily, 16 wks)","Plasma Abeta40 (30 mg/kg daily, 16 wks)","Plasma Abeta42 (30 mg/kg daily, 16 wks)","Brain Abeta40 insoluble (100 mg/kg daily, 8 wks)","Brain Abeta40 soluble (100 mg/kg daily, 8 wks)","Brain Abeta42 insoluble (100 mg/kg daily, 8 wks)","Brain Abeta42 soluble (100 mg/kg daily, 8 wks)","Plasma Abeta40 (100 mg/kg daily, 8 wks)","Plasma Abeta42 (100 mg/kg daily, 8 wks)","Brain Abeta40 insoluble (100 mg/kg daily, 16 wks)","Brain Abeta40 soluble (100 mg/kg daily, 16 wks)",other results
"O=S(=O)(O)CCCNC12CC3CC(CC(C3)C1)C2 [BW, 3-(1-adamantyl)amino-1-propanesulfonic acid]",−− (decreases of 15 to 29% are scored as “−−”),− (Decreases in the levels of Aβ of 5 to 14% are scored as “−”),0 (changes of 4% or less in either direction are scored as “0”),−− (decreases of 15 to 29% are scored as “−−”),−−− (decreases of 30% or more are scored as “−−−”),−−− (decreases of 30% or more are scored as “−−−”),++ (increases of 15 to 29% are scored as “++”),+ (increases in the levels of Aβ (relative to vehicle treated control) of 5 to 14% are scored as “+”),+ (increases in the levels of Aβ (relative to vehicle treated control) of 5 to 14% are scored as “+”),− (Decreases in the levels of Aβ of 5 to 14% are scored as “−”),−− (decreases of 15 to 29% are scored as “−−”),−− (decreases of 15 to 29% are scored as “−−”),−−− (decreases of 30% or more are scored as “−−−”),−− (decreases of 15 to 29% are scored as “−−”),−−− (decreases of 30% or more are scored as “−−−”),−− (decreases of 15 to 29% are scored as “−−”),− (Decreases in the levels of Aβ of 5 to 14% are scored as “−”),− (Decreases in the levels of Aβ of 5 to 14% are scored as “−”),+ (increases in the levels of Aβ (relative to vehicle treated control) of 5 to 14% are scored as “+”),++ (increases of 15 to 29% are scored as “++”),"Brain Abeta42 insoluble (100 mg/kg daily, 16 wks): ++ (increases of 15 to 29% are scored as “++”); Brain Abeta42 soluble (100 mg/kg daily, 16 wks): + (increases in the levels of Aβ (relative to vehicle treated control) of 5 to 14% are scored as “+”); Plasma Abeta40 (100 mg/kg daily, 16 wks): − (Decreases in the levels of Aβ of 5 to 14% are scored as “−”); Plasma Abeta42 (100 mg/kg daily, 16 wks): − (Decreases in the levels of Aβ of 5 to 14% are scored as “−”)"
"CC(C)(C)NCCCS(=O)(=O)O [BX, 3-(t-butyl)amino-1-propanesulfonic acid]",−−− (decreases of 30% or more are scored as “−−−”),−−− (decreases of 30% or more are scored as “−−−”),−− (decreases of 15 to 29% are scored as “−−”),−−− (decreases of 30% or more are scored as “−−−”),+ (increases in the levels of Aβ (relative to vehicle treated control) of 5 to 14% are scored as “+”),+ (increases in the levels of Aβ (relative to vehicle treated control) of 5 to 14% are scored as “+”),−−− (decreases of 30% or more are scored as “−−−”),−− (decreases of 15 to 29% are scored as “−−”),− (Decreases in the levels of Aβ of 5 to 14% are scored as “−”),0 (changes of 4% or less in either direction are scored as “0”),− (Decreases in the levels of Aβ of 5 to 14% are scored as “−”),− (Decreases in the levels of Aβ of 5 to 14% are scored as “−”),++ (increases of 15 to 29% are scored as “++”),+ (increases in the levels of Aβ (relative to vehicle treated control) of 5 to 14% are scored as “+”),0 (changes of 4% or less in either direction are scored as “0”),+ (increases in the levels of Aβ (relative to vehicle treated control) of 5 to 14% are scored as “+”),++ (increases of 15 to 29% are scored as “++”),+++ (increases of 30% or higher are scored as “+++”),−−− (decreases of 30% or more are scored as “−−−”),− (Decreases in the levels of Aβ of 5 to 14% are scored as “−”),"Brain Abeta42 insoluble (100 mg/kg daily, 16 wks): −− (decreases of 15 to 29% are scored as “−−”); Brain Abeta42 soluble (100 mg/kg daily, 16 wks): 0 (changes of 4% or less in either direction are scored as “0”); Plasma Abeta40 (100 mg/kg daily, 16 wks): − (Decreases in the levels of Aβ of 5 to 14% are scored as “−”); Plasma Abeta42 (100 mg/kg daily, 16 wks): 0 (changes of 4% or less in either direction are scored as “0”)"
"O=S(=O)(O)CCCNC1C2CC3CC(C2)CC1C3 (stereo not drawn) [BZ, 3-(2-adamantyl)amino-1-propanesulfonic acid]",−− (decreases of 15 to 29% are scored as “−−”),0 (changes of 4% or less in either direction are scored as “0”),−−− (decreases of 30% or more are scored as “−−−”),0 (changes of 4% or less in either direction are scored as “0”),0 (changes of 4% or less in either direction are scored as “0”),0 (changes of 4% or less in either direction are scored as “0”),+ (increases in the levels of Aβ (relative to vehicle treated control) of 5 to 14% are scored as “+”),0 (changes of 4% or less in either direction are scored as “0”),0 (changes of 4% or less in either direction are scored as “0”),+ (increases in the levels of Aβ (relative to vehicle treated control) of 5 to 14% are scored as “+”),0 (changes of 4% or less in either direction are scored as “0”),+ (increases in the levels of Aβ (relative to vehicle treated control) of 5 to 14% are scored as “+”),0 (changes of 4% or less in either direction are scored as “0”),++ (increases of 15 to 29% are scored as “++”),− (Decreases in the levels of Aβ of 5 to 14% are scored as “−”),0 (changes of 4% or less in either direction are scored as “0”),++ (increases of 15 to 29% are scored as “++”),+++ (increases of 30% or higher are scored as “+++”),0 (changes of 4% or less in either direction are scored as “0”),−− (decreases of 15 to 29% are scored as “−−”),"Brain Abeta42 insoluble (100 mg/kg daily, 16 wks): + (increases in the levels of Aβ (relative to vehicle treated control) of 5 to 14% are scored as “+”); Brain Abeta42 soluble (100 mg/kg daily, 16 wks): − (Decreases in the levels of Aβ of 5 to 14% are scored as “−”); Plasma Abeta40 (100 mg/kg daily, 16 wks): ++ (increases of 15 to 29% are scored as “++”); Plasma Abeta42 (100 mg/kg daily, 16 wks): ++ (increases of 15 to 29% are scored as “++”)"
